Measured values taken from patent publication US7091182B2, “Method for assisting in differential diagnosis and treatment of autistic syndromes” (Repligen Corporation, priority 1997, dated 2006).
“Also recorded” adds a separate entry of the source.

Assays:
[1] = test system: children with autistic behavior; assay: Pancreatic stimulation with secretin during upper gastrointestinal endoscopy, collection of pancreatico-biliary fluid; assay type: in vivo, human
Protocol: After fasting from midnight, upper gastrointestinal endoscopies were carried out the next morning under general anesthesia. All gastric juice was aspirated before passing the endoscope into the duodenum. The pancreatico-biliary juice was collected after positioning the endoscope distal to the ampulla of Vater. An ERCP catheter was placed into the channel of endoscope and the fluid was collected by moving the tip into the outcoming fluid and suctioning it into a syringe. The pancreas was then stimulated with secretin 2 IU/kg BW (Ferring Laboratories, Inc. Suffern, NY, USA) given intravenously within a minute. Three additional specimens were collected after the secretin injection within a 10-minute period. Blood samples were collected prior to and 10 minutes after secretin stimulation. In a subgroup of children, the effect of duodenal acidification was determined by measurement of blood secretin levels before and 4–5 minutes after washing the second part of the duodenum with 0.05M hydrochloric acid for 5 minutes. At the end of the procedure, biopsies were obtained of the small intestine, esophagus and stomach.
The volume of secreted fluid was calculated as ml/min and the aspirated juice analyzed for pH, protein (mg/ml; Bio-Rad protein assay), and for enzymes (amylase, trypsin, lipase, chymotrypsin, and carboxypeptidase A and B). These enzyme assays were modified by us and run regularly in our certified Clinical Laboratory. An aliquot of collected fluid was sent for bacterial and fungal culture. Intestinal biopsy specimens were homogenized in ice-cold distilled water and the activities of lactase, maltase, sucrase, palatinase and glucoamylase were measured using the Dahlquist intestinal disaccharidases assay [Dahlquist, Anal. Biochem. 22:99–107 (1968); Azad M, Pediatr Res, 1990;28: 166–170 (1990)]. The normal values were established based on measurements of histological normal intestinal biopsy tissues (n=104) at the University of Maryland. In our practice, digestive enzyme activities below the established 3d percentile values are considered abnormal.

[2] = test system: children with autistic behavior; assay: Behavioral evaluation after secretin administration; assay type: in vivo, human
Excerpt: Prior to the secretion administration, each child underwent developmental/psychological evaluation. […] In addition, most underwent a structured evaluation including assessment of intelligence, language ability, adaptive function [Vineland Adaptive Behavior Scales]^53 and behavioral rating scales [Child Behavior Checklist]^54. A more specific measure directly related to autism, the Childhood Autism Rating Scale [CARS]^55, was also used.
The most recent 8 cases had developmental/psychological evaluations at the University of Maryland or at the Kennedy Krieger Institute prior to the secretin administration.
The number and type of evaluation techniques that were employed increased across subjects as did the degree of sophistication of the professional staff involved in the design and conduct of the evaluation approaches. Specifically, data on the first seven subjects consisted of brief clinical observations, parental report, analysis of videotapes, and reports of evaluations by professionals who had conducted routine assessments not specifically dictated by our research protocol. Whereas, data on the second eight subjects studied consisted of the same methods described above, as well as with the addition of direct observation of behavior employing a standard functional analysis of structured videotape samples (analyzed in random order by blind raters); standard assessments including Communication and Symbolic Behavior Scales (CSBS), Pre-School Language Scales—3 (PSLS), Bayley Scales of Infant Development: Second Edition, Vineland Adaptive Behavior Scales, Childhood Autism Rating Scale (CARS), and Behavior Observation System (BOS). Further, the evaluation team for the least eight subjects involved professionals from the areas of neuropsychology, behavioral psychology and developmental pediatrics from both the University of Maryland School of Medicine and the Kennedy Krieger Institute/Johns Hopkins University School of Medicine.

[3] = test system: children without behavioral abnormalities; adults; assay: Secretin stimulatory response (pancreatic juice output) in non-autistic children and adults; assay type: in vivo, human
Protocol: The time required to collect basal duodenal fluid samples (1–2 ml) prior to secretin administration was 2–5 minutes, which was similar to that of non-autistic controls. […] Published adult responses using duodenal intubation and extended periods of specimen collection vary between 1.5 and 4.9 ml/min^56,57. Six out of 7 autistic patients who had chronic loose stools had pancreatico-biliary secretion rates above 5 ml/min (FIG. 4). […] The highest rate of secretion was 10 ml/min in one child.

rats = conditions: ICV; cited from earlier work
[4] = test system: ovariectomized, estrogen-primed rats; conditions: cited from earlier work
[5] = test system: patients with intrahepatic cholestasis; conditions: double-blind placebo-controlled multicentric trial; cited from earlier work

secretin
pancreatic secretory response ([1]; Case 1, after 2 IU/kg BW of secretin): 10 mL/min | secretory response after secretin administration ([1]; Case 2, 2 IU/kg body weight of secretin): 7.5 mL/min | pancreato-biliary response to secretin, output ([1]; Case 3): 8 mL/min | Pancreatic secretion ([1]; Group I (chronic loose stools/diarrhea)): Increased (>5 ml/min) | Pancreatic secretion ([1]; Group II (no diarrhea)): Normal (<4 ml/min) | pancreato-biliary secretory response compared to non-autistic patients ([1]; all children, after secretin injection): extensive pancreato-biliary secretory response | highest rate of secretion ([1]; in one child): 10 mL/min | pancreatico-biliary secretion rates ([1]; six out of 7 autistic patients who had chronic loose stools): above 5 ml/min | latest behavioral evaluation (diagnosis) ([2]; Case 1): changed from a low functioning autistic child to a social, non-autistic, speech delayed child; also recorded: changed from a low functioning autistic child to a social, non-autistic, speech-delayed child | changes in autistic behavior ([2]; Case 1, after first secretin dose): dramatic improvement in eye contact, alertness, expressive language and fine motor skills; also recorded: improvements in eye contact, alertness, expressive language, and fine motor skills | language and cognitive functions ([2]; Case 1, second single secretin infusion eight months later): further improvement in their language and cognitive functions | cognitive skills ([2]; Case 2, five weeks following a single dosage): progressive improvement in cognitive skills; also recorded: improved over a five weeks period | social behavior and language ([2]; Case 2, second dose 3 months later): further improvement in their social behavior and language | language and communication skills ([2]; Case 3, second infusion 3 months later): accelerated their improvement | language, social, and communication skills ([2]; Case 3, three weeks and two months after the procedure): significant improvements in language, social, and communication skills; also recorded: improved significantly | Progress after Secretin administration: eye contact ([2]; Case #1, within two months, % of the time, before: Minimal eye contact): Eye contact 75% of the time | Progress after Secretin administration: bowel movements ([2]; Case #1, within two months, before: Abnormal bowel movements): Normal bowel movements | Progress after Secretin administration: sleeping ([2]; Case #1, within two months, before: Consistent sleeping problems): Has slept through almost every night entirely | Progress after Secretin administration: potty training ([2]; Case #1, within two months, before: Diapers only): Completely potty trained | Progress after Secretin administration: imitating commands ([2]; Case #1, within two months, before: Did not imitate commands): Will imitate almost any multi-step command | Progress after Secretin administration: water consumption ([2]; Case #1, within two months, before: Excessive water consumption): Excessive water consumption - no change | Progress after Secretin administration: spinning episodes ([2]; Case #1, within two months, before: Infrequent (1–2 times/week)): No spinning episodes | Progress after Secretin administration: diet preferences ([2]; Case #1, within two months, before: Limited diet preferences): No change | Progress after Secretin administration: connections between language and objects ([2]; Case #1, within two months, before: No apparent connections): Many connections made between new language learned and objects. Recites | Progress after Secretin administration: flash cards ([2]; Case #1, within two months, before: No flash cards): 40–50 Flash cards | Progress after Secretin administration: focus on requested tasks ([2]; Case #1, within two months, before: No focus on requested tasks): Will sit and watch carefully. Will perform most tasks after watching once or | Progress after Secretin administration: interest in drawing ([2]; Case #1, within two months, before: No interest in drawing): Wants to draw constantly. Will draw complete face and name the parts as he | Progress after Secretin administration: response to request for gestures ([2]; Case #1, within two months, before: No response): Responds to all kinds of requests and spontaneously says these things themself. | Progress after Secretin administration: sentences ([2]; Case #1, within two months, before: No sentences): Short sentences, such as “I love you”, “I want juice”, “Good night mammy” | Progress after Secretin administration: words ([2]; Case #1, within two months, before: Two words): 100's of words - will repeat some aproximation at any word requested | Progress after Secretin administration: videos ([2]; Case #1, within two months, before: Watch videos): Now gets “involved” interactively with their videos. They will imitate the hand | autistic symptoms and cognitive, language, and social skills, share of responders ([2]; all children who received secretin): more than half of the children | Changes after Secretin: Activity level ([2]; case #2, time 1 week): Very energetic but has very good focus during | Changes after Secretin: Appetite ([2]; case #2, time 1 week): Eating more foods: 2–3 large meals per day: | Changes after Secretin: Movements ([2]; case #2, time 1 week): A decrease in most abnormal movements but | Changes after Secretin: Social interaction ([2]; case #2, time 1 week): Hugging therapists; better eye contact, | Changes after Secretin: Correct responses to drills ([2]; case #2, time 1 week, before: 50% correct responses): 75–80% correct responses | Changes after Secretin: Bowel movements ([2]; case #2, time 2–3 days): At first constipated for 2–3 days. then normal | Changes after Secretin: Receptive language, commands understood ([2]; case #2, time 3 weeks, before: 20–30% of commands): understands where they are going: understands 75% | Changes after Secretin: Fine motor ([2]; case #2, time 4 weeks): Putting together Legos: turns key in door; turns | Changes after Secretin: Gross motor ([2]; case #2, time 4 weeks): Starts to hang on monkey bars: goes down fire | Changes after Secretin: Sleep ([2]; case #2, time 1 day, before: 7–8 hours): 10–12 hours per night uninterrupted every night | Changes after Secretin: Alertness, concentration ([2]; case #2, time 2 days): Extremely alert: looking therapist directly in | Changes: Activity level ([2]; case #3): Less hyperactive. More settled. More attentive and | Changes: Alertness, concentration ([2]; case #3): Chewing clothing, hands, and licking have stopped. | Changes: Appetite ([2]; case #3): Normal diet seems to satisfy them more. No longer | Changes: Cognitive ([2]; case #3): Actions are more purposeful. Playing sequencing, | Changes: Eye contact ([2]; case #3): More eye contact. Seeks out attention and once | Changes: Fine motor skills ([2]; case #3): Now uses fork and spoon much more readily and | Changes: Sleep ([2]; case #3): Now goes to bed willing and happily. Takes great | Changes: Social interaction ([2]; case #3): Now has a friend at school. They participate actively in | Changes: Correct responses to drills/commands ([2]; case #3, before: 50% correct responses): Rarely guessing. Very tuned in. Perhaps 80% correct | Changes: Bowel movements ([2]; case #3, before: Loose stools or diarrhea): Normal bowel movement since week three | Changes: Receptive language ([2]; case #3, before: understood 50% of commands): Understands almost everything. Understands two-step | increase in the scores on the Vineland Scale of Adaptive Behavior ([2]; case three, immediately after secretin administration): 22% | delayed reaction reported by the parents ([2]; case three, one-to-two months later): improved eye contact, increased focus on tasks, as well as improvements in language | language skills ([2]; case two, after the secretin injection): significant improvement in language skills | Vineland Scale of Adaptive Behaviors ([2]; child SG): increase in all five areas tested | increase in the CSBS ([2]; child SG): 25% | increases in language skills ([2]; child SG): six-to-nine month | increase in language skills measured by the PSLS (equivalent in development) ([2]; child WB): five months to one year | increase on the Bayley Scale of Development ([2]; child WB): 11 point | increase on the CSBS scale ([2]; child WB, within four months): 37% | autistic symptoms ([2]; each of the three cases): produced relief from autistic symptoms | cognitive, social, language, and age appropriate skills ([2]; first seven subjects, parental report and non-protocol evaluations): dramatic changes in cognitive, social, language, and age appropriate skills were reported for four of the first seven subjects | decrease of activity level measured by actometers ([2]; subject one): 50% | increase on the BOS ([2]; subject one): 22% | average stimulatory response for secretin ([3]; children 3–7 years of age, own data, same endoscopic collection technique): 1 to 2 mL/min | typical pancreatic juice output ([3]; children without behavioral abnormalities, ages 1 to 6): 1 to 2 mL/min | defecation (rats): significantly increased | novel-object approaches (rats): decreased | stereotypic behavior (rats): no significant effects | circadian rise of LH secretion [4]: strikingly effective in increasing | reduction of serum bilirubin levels, secretin versus placebo [5]: no statistically significant differences
